# According to patent publication US9326513B2, “Fungicidal compositions” (Syngenta Participations AG, priority 2011, dated 2016):
# “And” between values parts separate entries of the source, which are not always exact repeats. Identical values can stand only once.
# Legend:
# Septoria tritici [1] = assay: Septoria tritici (leaf blotch), YBG microtiter plate, photometric growth inhibition after 6 days; assay type: cell-based; conditions: Zymoseptoria tritici, 144 h, solo; for inhibition of growth at 0.078125 ppm: rate 0.078125 ppm; for inhibition of growth at 0.15625 ppm: rate 0.15625 ppm, read-out: Activity; for inhibition of growth at 0.3125 ppm: rate 0.3125 ppm; for inhibition of growth at 1.25 ppm: rate 1.25 ppm
# Description: (§1) In the following Tables ‘Activity (%)’ means the assessed experimental activity (% disease control in this test when compared to untreated control leaf disks under the same conditions, which show extensive disease development) and “P” is the expected value calculated (expected) activity according to the COLBY formula (see above). The column headed ‘S?’ indicates whether or not synergy was observed, with ‘y’ meaning that synergy was observed.
# Septoria tritici (Leaf Blotch):
# After placing solutions of the test compounds (containing 0.2% DMSO) into a microtiter plate (96-well format), an equal amount of the nutrient broth (YBG) was added to each of the well. Finally the fungal spore solution was added. The test plates were incubated at 20° C. The inhibition of growth was determined photometrically after 6 days and the activity calculated in relation to untreated control.
# [2] = test system: Puccinia recondita f. sp. tritici; assay: Puccinia recondita f. sp. tritici / wheat / leaf disc curative (brown rust); assay type: in vivo; conditions: foliar, compared to untreated control leaf disks, read-out: disease control
# Method: Puccinia recondita f. sp. tritici/Wheat/Leaf Disc Curative (Brown Rust) Wheat leaf segments cv. Kanzler are placed on agar in multiwell plates (24-well format). The leaf segments are inoculated with a spore suspension of the fungus. Plates were stored in darkness at 19° C. and 75% rh. The formulated test compound diluted in water was applied 1 day after inoculation.
# [3] = test system: Fusarium graminearum and Fusarium culmorum; assay type: in vivo; conditions: solo, 200 g a.i./ha; wheat, 1 day preventive, 9 days after application
# [4] = test system: Mycosphaerella arachidis (y. Cercospora arachidicola); assay: Mycosphaerella arachidis (brown leaf spot of groundnut), PDB microtiter plate, visual after 5-6 days; assay type: cell-based; conditions: single compound
# [5] = test system: Blumeria graminis f. sp. tritici (Erysiphe graminis f. sp. tritici); assay: Blumeria graminis f. sp. tritici / wheat / leaf disc preventative (powdery mildew on wheat); assay type: in vivo; conditions: foliar, compared to untreated control leaf disks, read-out: disease control
# Summary of the method: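 Preventative leaf-disc test: compound (200 ppm) was sprayed onto cv. Kanzler wheat segments, which were dusted with conidia from infected plants 1 day after application. After incubation at 20° C and 60% rh, disease control relative to untreated segments was rated 6-8 days after application.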
# Sclerotinia sclerotiorum = Sclerotinia sclerotiorum on oilseed rape, preventive treatment; assay type: in vivo; conditions: solo, 1 day preventive, 11 days after application
# Description: as §1
# Sclerotinia sclerotiorum on Oilseed Rape, Preventive Treatment
# The compound activity was tested under 1 day preventive conditions. Oilseed rape plants with 3 unfolded leafs were sprayed with a track sprayer and 200 I/ha spray volume with the test compounds, either solo or in tankmix as shown in the table below.
# 1 day after application the plants were infested with a solution of Sclerotinia sclerotiorum mycelium. The plants were placed under plastic hoods and high humidity conditions in a climate chamber at 14 h day/10 h night cycle and 15° C. Disease infestation was evaluated visually 11 days after application and average activity calculated in relation to disease severity on untreated check.
# [6] = test system: Monographella nivalis (syn. Microdochium nivale, Fusarium nivale); assay: Monographella nivalis (snow mould, foot rot of cereals), PDB microtiter plate, visual after 72 hrs; assay type: cell-based
# [7] = test system: Puccinia recondita f. sp. tritici; assay: Puccinia recondita f. sp. tritici / wheat / leaf disc preventative (brown rust); assay type: in vivo; conditions: foliar, compared to untreated control leaf disks, read-out: disease control
# Description: Puccinia recondita f. sp. tritici/Wheat/Leaf Disc Preventative (Brown Rust) Wheat leaf segments cv. Kanzler were placed on agar in multiwell plates (24-well format) and sprayed with the formulated test compound diluted in water. The leaf disks were inoculated with a spore suspension of the fungus 1 day after application.
# Septoria tritici [8] = assay: Septoria tritici (leaf blotch), PDB microtiter plate, visual after 72 hrs; assay type: cell-based; conditions: Zymoseptoria tritici, single compound; for inhibition at 0.25 ppm: read-out: Activity (%)
# Septoria tritici [9] = assay: Septoria tritici on wheat, preventive treatment; assay type: in vivo; conditions: solo, wheat Riband, 1 day preventive, 18 days after application
# [10] = test system: Phakopsora pachyrhizi (triazole tolerant soybeanrust strain); assay: Phakopsora pachyrhizi on soybean, preventive treatment; assay type: in vivo; conditions: solo, soybean leaf discs, 1 day preventive, 11 days after application
# Sphaerotheca fuliginea = Sphaerotheca fuliginea (powdery mildew) on cucumber, preventive treatment; assay type: in vivo; conditions: solo, 2 days preventive, 10 days after application
# Description: In the following Tables 'Activity (%)' means the assessed experimental activity (% disease control in this test when compared to untreated control leaf disks under the same conditions, which show extensive disease development) and “P” is the expected value calculated (expected) activity according to the COLBY formula (see above). The column headed 'S?' indicates whether or not synergy was observed, with 'y' meaning that synergy was observed. Sphaerotheca fuliqinea (Powdery Mildew) on Cucumber, Preventive Treatment […] Cucumber plants with unfolded cotyledons were sprayed with a roomsprayer and 40 ml/4 plants spray volume with the test compounds, either solo or in […] shown in the table below. 2 days after application the plants were infested with spores of Sphaerotheca fuliginea.
# [11] = Mycosphaerella arachidis, read-out: Activity (%)
# [12] = Monographella nivalis, applied alone, 0.015625 ppm
# [13] = Monographella nivalis, applied alone, 0.03125 ppm
# [14] = Monographella nivalis, applied alone, 0.0625 ppm
# [15] = Monographella nivalis, applied alone, 0.125 ppm
# [16] = Monographella nivalis, applied alone, 2 ppm
compound,measurement,setting,value
CCN(C)/C=N/c1cc(Br)c(OC2Cc3ccccc3C2)nc1C [Q.062],inhibition of growth at 0.00390625 ppm,Septoria tritici [1]; rate 0.00390625 ppm,32%
same,inhibition of growth at 0.0078125 ppm,Septoria tritici [1]; rate 0.0078125 ppm,31%
same,inhibition of growth at 0.078125 ppm,Septoria tritici [1],29%
same,inhibition of growth at 0.15625 ppm,Septoria tritici [1],39%
same,inhibition of growth at 0.3125 ppm,Septoria tritici [1],37%
same,inhibition of growth at 1.25 ppm,Septoria tritici [1],51%
same,inhibition of growth at 2.5 ppm,Septoria tritici [1]; rate 2.5 ppm,48%
same,inhibition of growth at 5 ppm,Septoria tritici [1]; rate 5 ppm,64%
same,pest or weed control at 200 ppm,[2],≥ 50%
same,Activity,[3],17%
same,inhibition at 0.015625 ppm,[4]; [11],0%
same,inhibition at 0.03125 ppm,"[4]; Mycosphaerella arachidis, 0.03125 ppm, read-out: Activity (%)",0%
same,inhibition at 0.0625 ppm,"[4]; Mycosphaerella arachidis, 0.0625 ppm, read-out: Activity (%)",0%
same,inhibition at 0.125 ppm,"[4]; Mycosphaerella arachidis, 0.125 ppm, read-out: Activity (%)",0%
same,inhibition at 0.25 ppm,[4]; [11],0%
same,inhibition at 0.5 ppm,[4]; [11],0%
same,inhibition at 1 ppm,"[4]; Mycosphaerella arachidis, 1 ppm",70%
same,inhibition at 2 ppm,"[4]; Mycosphaerella arachidis, 2 ppm",70%
same,pest or weed control at 200 ppm,[5],≥ 50%
same,Activity,Sclerotinia sclerotiorum; rate 25 ppm,0%
same,Activity,Sclerotinia sclerotiorum; rate 50 ppm,2%
same,Activity,Sclerotinia sclerotiorum; rate 100 ppm,26%
same,inhibition at 0.015625 ppm,[6]; [12],0%
same,inhibition at 0.03125 ppm,[6]; [13],0%
same,inhibition at 0.0625 ppm,[6]; [14],0%
same,inhibition at 0.125 ppm,[6]; [15],0%
same,inhibition at 2 ppm,[6]; [16],20%
same,inhibition at 0.015625 ppm,"[6]; Monographella nivalis, single compound, rate 0.015625 ppm",0%
same,inhibition at 0.03125 ppm,"[6]; Monographella nivalis, single compound, rate 0.03125 ppm",0%
same,inhibition at 0.0625 ppm,"[6]; Monographella nivalis, single compound, rate 0.0625 ppm",0%
same,inhibition at 0.125 ppm,"[6]; Monographella nivalis, single compound, rate 0.125 ppm",0%
same,inhibition at 0.25 ppm,"[6]; Monographella nivalis, single compound, rate 0.25 ppm",20%
same,inhibition at 0.5 ppm,"[6]; Monographella nivalis, single compound, rate 0.5 ppm",50%
same,inhibition at 1 ppm,"[6]; Monographella nivalis, single compound, rate 1 ppm",70%
same,pest or weed control at 200 ppm,[7],≥ 50%
same,inhibition at 0.00390625 ppm,Septoria tritici [8],0%
same,inhibition at 0.0078125 ppm,Septoria tritici [8],0%
same,inhibition at 0.015625 ppm,Septoria tritici [8],0%
same,inhibition at 0.03125 ppm,Septoria tritici [8],0%
same,inhibition at 0.0625 ppm,Septoria tritici [8],0%
same,inhibition at 0.125 ppm,Septoria tritici [8],0%
same,inhibition at 0.25 ppm,Septoria tritici [8],0%
same,inhibition at 0.5 ppm,Septoria tritici [8],0%
same,inhibition at 1 ppm,Septoria tritici [8],0%
same,inhibition at 2 ppm,Septoria tritici [8],0%
same,Activity,Septoria tritici [9]; 1 g a.i./ha,2%
same,Activity,Septoria tritici [9]; 3 g a.i./ha,8% and 6%
same,Activity,Septoria tritici [9]; 27 g a.i./ha,50% and 71%
same,Activity,Septoria tritici [9]; 81 g a.i./ha,61%
same,Activity,[10]; rate 0.5 g ai/ha,0%
same,Activity,[10]; rate 2 g ai/ha,13%
same,Activity,Sphaerotheca fuliginea; rate 0.2 ppm,0%
same,Activity,Sphaerotheca fuliginea; rate 0.6 ppm,0%
same,Activity,Sphaerotheca fuliginea; rate 2 ppm,7%
CCN(C)/C=N/c1cc(Br)c(OC(C)c2cc(F)cc(F)c2)nc1C (centres unmarked) [Q.113],inhibition of growth at 0.0195312 ppm,Septoria tritici [1]; rate 0.01953125 ppm,15%
same,inhibition of growth at 0.0390625 ppm,Septoria tritici [1]; rate 0.0390625 ppm,28%
same,inhibition of growth at 0.078125 ppm,Septoria tritici [1],31%
same,inhibition of growth at 0.15625 ppm,Septoria tritici [1],42%
same,inhibition of growth at 0.3125 ppm,Septoria tritici [1],34%
same,inhibition of growth at 0.625 ppm,Septoria tritici [1]; rate 0.625 ppm,39%
same,inhibition of growth at 1.25 ppm,Septoria tritici [1],42%
same,inhibition of growth at 10 ppm,Septoria tritici [1]; rate 10 ppm,63%
same,pest or weed control at 200 ppm,[2],≥ 50%
same,Activity,[3],23%
same,inhibition at 0.0078125 ppm,"[4]; Mycosphaerella arachidis, 0.0078125 ppm, read-out: Activity (%)",0%
same,inhibition at 0.015625 ppm,[4]; [11],0%
same,inhibition at 0.25 ppm,[4]; [11],70%
same,inhibition at 0.5 ppm,[4]; [11],70%
same,Activity (%),[4]; 0.125 ppm,50%
same,pest or weed control at 200 ppm,[5],≥ 50%
same,Activity,Sclerotinia sclerotiorum; rate 25 ppm,2%
same,Activity,Sclerotinia sclerotiorum; rate 50 ppm,2%
same,Activity,Sclerotinia sclerotiorum; rate 100 ppm,39%
same,inhibition at 0.00390625 ppm,"[6]; Monographella nivalis, applied alone, 0.00390625 ppm",0%
same,inhibition at 0.0078125 ppm,"[6]; Monographella nivalis, applied alone, 0.0078125 ppm",0%
same,inhibition at 0.015625 ppm,[6]; [12],0%
same,inhibition at 0.03125 ppm,[6]; [13],0%
same,inhibition at 0.0625 ppm,[6]; [14],0%
same,inhibition at 0.125 ppm,[6]; [15],0%
same,inhibition at 0.25 ppm,"[6]; Monographella nivalis, applied alone, 0.25 ppm",0%
same,inhibition at 2 ppm,[6]; [16],70%
same,inhibition at 2 ppm,"[6]; Monographella nivalis, applied alone, rate 2 ppm",70%
same,Activity (%),"[6]; applied alone, 0.5 ppm",20%
same,Activity (%),"[6]; applied alone, 1 ppm",20%
same,Activity (%),"[6]; applied alone, rate 0.125 ppm",2%
same,Activity (%),"[6]; applied alone, rate 0.25 ppm",2%
same,Activity (%),"[6]; applied alone, rate 0.5 ppm",20%
same,Activity (%),"[6]; applied alone, rate 1 ppm",20%
same,pest or weed control at 200 ppm,[7],≥ 50%
same,inhibition at 0.00390625 ppm,Septoria tritici [8],0%
same,inhibition at 0.0078125 ppm,Septoria tritici [8],0%
same,inhibition at 0.015625 ppm,Septoria tritici [8],0%
same,inhibition at 0.03125 ppm,Septoria tritici [8],0%
same,inhibition at 0.0625 ppm,Septoria tritici [8],0%
same,inhibition at 0.125 ppm,Septoria tritici [8],0%
same,inhibition at 0.25 ppm,Septoria tritici [8],0%
same,inhibition at 0.5 ppm,Septoria tritici [8],0%
same,inhibition at 1 ppm,Septoria tritici [8],0%
same,inhibition at 2 ppm,Septoria tritici [8],0%
same,Activity,Septoria tritici [9]; 1 g a.i./ha,1%
same,Activity,Septoria tritici [9]; 3 g a.i./ha,0%
same,Activity,Septoria tritici [9]; 81 g a.i./ha,53%
same,Activity,[10]; rate 0.5 g ai/ha,1%
same,Activity,[10]; rate 2 g ai/ha,25%
same,Activity,Sphaerotheca fuliginea; rate 0.2 ppm,0%
same,Activity,Sphaerotheca fuliginea; rate 0.6 ppm,0%
same,Activity,Sphaerotheca fuliginea; rate 2 ppm,0%
